Data taken from US20220289691A1, “5-AMINO-SUBSTITUTED PYRAZOLES AND TRIAZOLES AS PEST CONTROL AGENTS” (Bayer Aktiengesellschaft, priority 2019, published 2022).

What was measured:
Diabrotica balteata = Diabrotica balteata spray test; format: in vivo; details: 168 h, beetle larvae on wheat, after 7 days, read-out: efficacy (wheat plant growth); for pest or weed control at 125 g/ha: 125 g/ha (=40 μg/cavity); for pest or weed control at 500 g/ha: 500 g/ha (=160 μg/cavity); for pest or weed control at 100 g/ha: 100 g/ha (=32 μg/cavity)
Description: Diabrotica balteata—Spray Test Solvent: 78 parts by weight of acetone • • 1.5 parts by weight of dimethylformamide Emulsifier: alkylaryl polyglycol ether
(§1) To produce a suitable active compound formulation, 1 part by weight of active compound is dissolved using the stated parts by weight of solvent and made up with water containing an emulsifier concentration of 1000 ppm until the desired concentration is attained. To produce further test concentrations, the formulation is diluted with emulsifier-containing water.
Pre-swollen wheat grains (Triticum aestivum) are incubated in a multiwell plate filled with agar and a little water for one day (5 seed grains per cavity). The germinated wheat grains are sprayed with an active compound formulation of the desired concentration. Subsequently, each cavity is infected with 10-20 beetle larvae of Diabrotica balteata.
After 7 days, the efficacy in % is determined. 100% means that all wheat plants have grown as in the untreated, uninfected control; 0% means that no wheat plant has grown.

Spodoptera frugiperda = Spodoptera frugiperda spray test; format: in vivo; details: foliar, 168 h, maize leaf discs, after 7 days, read-out: efficacy (caterpillars killed)
Description: Spodoptera frugiperda—Spray Test Solvent: 78.0 parts by weight of acetone • • 1.5 parts by weight of dimethylformamide Emulsifier: alkylaryl polyglycol ether
as §1
Leaf discs of maize (Zea mays) are sprayed with an active compound formulation of the desired concentration and, after drying, populated with caterpillars of the fall armyworm (Spodoptera frugiperda).
After 7 days, the efficacy in % is determined. 100% means that all the caterpillars have been killed; 0% means that no caterpillar has been killed.

SMILES	pest or weed control at 125 g/ha (Diabrotica balteata)	pest or weed control at 500 g/ha (Diabrotica balteata)	pest or weed control at 100 g/ha (Spodoptera frugiperda)	pest or weed control at 100 g/ha (Diabrotica balteata)	pest or weed control at 500 g/ha (Spodoptera frugiperda; 500 g/ha)
CNc1nc(-c2ccc(NC(=O)N=C3SCC(=O)N3c3ccccc3C(C)C)cc2)nn1-c1ccc(OC(F)(F)C(F)(F)F)cc1 [Compound I-027]	100%	100%	100%		
CC(C)c1ccccc1N1C(=O)CSC1=NC(=O)Nc1ccc(-c2nc(NC3CC3)n(-c3ccc(OC(F)(F)F)cc3)n2)cc1 [Compound I-029]	100%	100%	100%		
CNC(=O)Nc1nc(-c2ccc(NC(=O)N=C3SCC(=O)N3c3ccccc3C(C)C)cc2)nn1-c1ccc(OC(F)(F)F)cc1 [Compound I-030]		100%	100%		
CC(=O)NCCNc1nc(-c2ccc(NC(=O)N=C3SCC(=O)N3c3ccccc3C(C)C)cc2)nn1-c1ccc(OC(F)(F)F)cc1 [Compound I-033]	100%	100%	100%		
CC(=O)Nc1nc(-c2ccc(NC(=O)N=C3SCC(=O)N3c3ccccc3C(C)C)cc2)nn1-c1ccc(OC(F)(F)F)cc1 [Compound I-034]		100%	100%	100%	
CC(C)c1ccccc1N1C(=O)CSC1=NC(=O)Nc1ccc(-c2nc(NC(=O)C3CC3)n(-c3ccc(OC(F)(F)F)cc3)n2)cc1 [Compound I-035]		100%	100%	80%	
CCC(=O)Nc1nc(-c2ccc(NC(=O)N=C3SCC(=O)N3c3ccccc3C(C)C)cc2)nn1-c1ccc(OC(F)(F)F)cc1 [Compound I-036]		100%	100%	80%	
CCOC(=O)C(=O)Nc1nc(-c2ccc(NC(=O)N=C3SCC(=O)N3c3ccccc3C(C)C)cc2)nn1-c1ccc(OC(F)(F)F)cc1 [Compound I-037]		100%	83%	80%	
CC(C)c1ccccc1N1C(=O)CSC1=NC(=O)Nc1ccc(-c2nc(NC(=O)C(F)F)n(-c3ccc(OC(F)(F)F)cc3)n2)cc1 [Compound I-038]		100%	100%	80%	
CC(=O)Nc1cc(-c2ccc(C=NN=C3SCC(=O)N3c3ccccc3C(C)C)cc2)nn1-c1ccc(OC(F)(F)F)cc1 [Compound I-039]			100%	80%	
CC(=O)Nc1cc(-c2ccc(C=NNC(=S)Nc3ccccc3C(C)C)cc2)nn1-c1ccc(OC(F)(F)F)cc1 [Compound I-040]		100%	100%	80%	
CC(C)c1ccccc1N1C(=O)CSC1=NC(=O)Nc1ccc(-c2nc(NC3CCC3)n(-c3ccc(OC(F)(F)F)cc3)n2)cc1 [Compound I-041]		100%	100%	100%	
CCNc1nc(-c2ccc(NC(=O)N=C3SCC(=O)N3c3ccccc3C(C)C)cc2)nn1-c1ccc(OC(F)(F)F)cc1 [Compound I-042]			100%	100%	
CC(C)Nc1nc(-c2ccc(NC(=O)N=C3SCC(=O)N3c3ccccc3C(C)C)cc2)nn1-c1ccc(OC(F)(F)F)cc1 [Compound I-043]		100%	100%	100%	
CCOCCNc1nc(-c2ccc(NC(=O)N=C3SCC(=O)N3c3ccccc3C(C)C)cc2)nn1-c1ccc(OC(F)(F)F)cc1 [Compound I-044]		80%	100%	80%	
CC(C)c1ccccc1N1C(=O)CSC1=NC(=O)Nc1ccc(-c2nc(NC3CCOC3)n(-c3ccc(OC(F)(F)F)cc3)n2)cc1 (stereo not shown) [Compound I-045]		100%	100%	100%	100%
CON(C)c1nc(-c2ccc(NC(=O)N=C3SCC(=O)N3c3ccccc3C(C)C)cc2)nn1-c1ccc(OC(F)(F)F)cc1 [Compound I-046]		100%	100%	100%	
CC(C)c1ccccc1NC(=S)NN=Cc1ccc(-c2nc(NC3COC3)n(-c3ccc(OC(F)(F)F)cc3)n2)cc1 [Compound I-049]		100%	100%	100%	
